According to US6617361B2, “Behavior chemotherapy” (Be Able, LLC, priority 1999, dated 2003):
Where a name gives a salt, the structure may show the parent alone.

What was measured:
Patient six [1] = assay: Protocol and results with patient six, Example 10 (fibromyalgia, obesity); assay type: in vivo, human; settings: for weight lost on therapy to date: Ionamin + fenfluramine (until 1996) + Zoloft from December 1995, Aricept from August 1998; for body weight: July 1999; for overall condition: over three years from December 1995, combination Ionamin 30 mg + fenfluramine 20 mg + Zoloft 25 mg, fenfluramine discontinued 1996
Text: This longstanding patient was first seen in 1988 for fibromyalgia. They are also bothered by chronic low back pain, mitral valve prolapse, sleep disturbance, a family history of coronary disease, and obesity. They are 5′8″ tall, 205½ lb. […] Their problem list contained the additional diagnoses of GERD, carpal tunnel syndrome, suspected mitral valve prolapse, and acne rosacea.
Their medication list included Synthroid, Estratest, Klonopin, Prilosec, Limbitrol, Provera, Premarin and Zostrix cream. […] They frequented health food stores, as well as chiropractors for relief.
Although greatly fearful of potential long-term problems, the patient finally agreed to the institution of a change in their medications and started therapy which was a major change in their medicines December 1995. […] At that time the patient's weight was in the mid 180s. Their other medications were continued.
This was an independent patient-initiated decision.

Patient two = assay: Protocol and results with patient two (leg pain, absence of energy); assay type: in vivo, human; settings: for weight reduction / leg aches: Celexa + Adipex-P + Aricept (atenolol at first); for weight reduction: November 1998 to August 1999; for leg aches: by August 1999; for body weight: August 1999, from 143 lb November 1998, Celexa 10 mg + Adipex-P 37.5 one-half (+ atenolol 25 mg), later with Aricept 1.25 mg three times weekly
Procedure: First evaluated this 5′4″, ectomorphic, single person who was […] at the time.
On Nov. […] They were started on Celexa 10 mg, Adipex-P 37.5 one-half tablet, and atenolol 25 mg all in the morning.
They will keep in touch with me as they will take each instruction for four doses and then go to the next.

Patient six [2] = assay: Protocol and results with patient six, Example 12 (thalamic pain syndrome, ethanol use); settings: for outcome of earlier trials for thalamic pain syndrome: before the protocol; for alcohol withdrawal phenomena: combination Adipex-P 37.5 one-half b.i.d. + fenfluramine 10 mg + Celexa 10 mg + Nutrimed three times daily + Librium 30 mg (three days) + atenolol 25 mg; for body weight change: approximately five weeks into therapy, combination Adipex-P + fenfluramine + Celexa + Nutrimed; for energy level / pain as described by patient: combination Adipex-P 37.5 one-half b.i.d. + fenfluramine 10 mg + Celexa 10 mg + Nutrimed three times daily (+ atenolol 25 mg)
Procedure: Person with sudden onset of numbness right side of body in Guyana 1973. […] Diagnosis was thalamic pain syndrome.
Other medical problems: borderline hypertension, obesity secondary to ETOH, hemorrhoids, and remote short-lived cigarette smoking.
At the time therapy started the patient was taking either hydrocodone/APAPE 7.5/500 as needed or Percocet. […] Therapy was started with Adipex-P 37.5 one-half p.o. bid., fenfluramine 10 mg p.o. q.a.m., Celexa 10 mg p.o. q.a.m., Nutrimed three times daily plus dinner for nutritional support (Nutrimed is a high protein, low carbohydrate semi-starvation fast), Librium 30 mg q.d. because of the discontinuation of alcohol, atenolol 25 mg q.a.m. Treatment started July 1999.
By mid-August, approximately five weeks into therapy, the patient was still on Nutrimed and Adipex but the fenfluramine was diminished to one-quarter of a pill or 5 mg. The atenolol was discontinued and the patient was encouraged to exercise.

Patient three = assay: Protocol and results with patient three (chronic fatigue); settings: for side effect noted by patient: combination reduced to Adipex-P 37.5 one-half, Celexa one-quarter, Aricept one-quarter, fenfluramine one-quarter pill q.a.m.; for patient-reported status: within two days, combination Adipex-P 37.5 mg one-half b.i.d. + Celexa 10 mg q.d. + fenfluramine 10 mg q.d. + Aricept one-half q.d.
Text: Longstanding patient in my practice who […] developed a viral illness followed by chronic fatigue. This problem persisted, numerous evaluations and consultations were obtained, in excess of 20 physicians were consulted, and the patient was followed for nine months in a major medical center with the diagnosis of chronic Lyme disease. Prior to this their symptoms included a compendium of mild lifelong autonomic dysfunction including chronic bladder and urethral problems which necessitated urological surgery in the distant past. They had not retired from work but had taken long leaves of absence and found it difficult to keep up their normal work schedule as a social worker, something they had done for many years. In the past for their autonomic dysfunction they had been placed on Depakote, Wellbutrin, and amitriptyline and they were on this when they became ill.
Their other medical problems included mitral valve prolapse with click and no murmur but no symptoms, a history of endometriosis, occasional kidney stones, and an ovarian cyst.
Therapy was begun on May 26, 1999. On Jun. […] They were still on 12.5 mg of Elavil or one-half pill and some minocin for acne, Wellbutrin from their psychiatrist, and Zithromax, an antibiotic started by other physicians for the treatment of Lyme disease. This is something that I advised them to discontinue, but they continued because of the concerns of the diagnosis.

Patient five = assay: Protocol and results with patient five (severe obesity); assay type: in vivo, human; settings: for body weight: December 1997, combination Ionamin 30 mg + fenfluramine 20 mg + Zoloft 25 mg q.d. since August 1995, start in excess of 350 lb; for body weight reported by phone: combination Adipex-P 37.5 mg one-half b.i.d. + Celexa 20 mg one-half MWF + Adalat 30 + Aricept + Nutrimed three times daily, from 264¼ lb
Text: This person has been a patient in this practice for many years. Their medical problems are extremely long-lived and include chronic depression, severe obesity, hypertension, stasis dermatitis, and venous insufficiency of the lower extremities, and seborrhea.
In addition they were taking Lasix, Zaroxolyn and potassium for the control of their severe edema and leg pain. They were also using the CPAP machine.
At their insistence Meridia and Adalat were attempted. […] To augment the weight loss the patient was started on Nutrimed three times daily plus a regular dinner.

Patient four = assay: Protocol and results with patient four (morbid obesity, cardiomyopathy); assay type: in vivo, human; settings: for cardiac index remeasured / body weight the next month: combination Adipex-P 37.5 one-half + Zoloft 25 mg + Aricept 1.25 mg + fenfluramine 5 mg (+ atenolol 12.5 mg); for body weight the next month: from 235 lb June 1999
Procedure: This person has been in the practice for several years. Their medical problems surround a cardiomyopathy with a low cardiac output state and heart failure. They also have a history of hypertension, hypothyroidism on therapy, and morbid obesity.
Medication alterations continued over the next several months with increasing Ionamin to 30 mg. Hytrin was added at 2 mg because of prostatic symptoms and in November Pondimin was added.
Adipex-P 37.5 one-half was added to their medications. […]

Patient one = assay: Protocol and results with patient one (cigarette smoking); settings: January 1998; Ionamin 15 mg + Prozac 10 mg MWF (+ Estratest, occasional Tranxene)
Text: In addition, they were started on the moderate dose of the patch.

[3] = current medication includes Ionamin 15 mg q.a.m. and Aricept one-quarter pill MWF
[4] = July 1997, combination Ionamin 30 mg + Zoloft 25 + Pondimin
[5] = November, Ionamin (15 then 30 mg) + Zoloft 25 since April 1996, before Pondimin, not decreasing, averaging 237 lb before

For `COc1cc2c(cc1OC)C(=O)C(CC1CCN(Cc3ccccc3)CC1)C2` (stereo not shown) [Aricept, donepezil], the “patient-reported status after addition” value (Patient six [1]; Aricept 2.5 mg Monday, Wednesday, Friday added August 1998 to ongoing therapy) was “felt much better”, the “weight lost on therapy to date” value (Patient six [1]) was “approximately 25 lb” and the body weight (Patient six [1]; [3]) was 161 lb. For the same compound, the weight reduction (Patient two) was 12.5% and the leg aches (Patient two) was “resolution of their leg aches”.

For `NCC1(CC(=O)O)CCCCC1` [Neurontin], the “outcome of earlier trials for thalamic pain syndrome” value (from here on “outcome of earlier trials”) (Patient six [2]) was “no help”.

For `CNC1=Nc2ccc(Cl)cc2C(c2ccccc2)=[N+]([O-])C1` [Librium], the side effect (Patient six [2]; 30 mg q.d., discontinued by day three) was “mild sleepiness” and the alcohol withdrawal phenomena (Patient six [2]) was “no withdrawal phenomena”.

For `CCNC(C)Cc1cccc(C(F)(F)F)c1` (stereo not shown) [fenfluramine], the “side effect noted by patient” value (Patient three) was “some difficulty sleeping”, the patient-reported status (Patient three) was “life had been transformed back towards its normal status” and the body weight (Patient five) was 245 lb. The body weight (Patient four; [4]) was 217 lb, the “cardiac output by echocardiography” value (Patient four; [4]) was “improved” and the cardiac index remeasured (Patient four) was “even more improved than previously”. For the same compound, the “body weight the next month” value (Patient four) was 218, the “weight lost on therapy to date” value (Patient six [1]) was “approximately 25 lb” and the overall condition (Patient six [1]) was “greatly improved”. The body weight change (Patient six [2]) was “marked weight loss”, the energy level (Patient six [2]) was “marked improvement in energy level” and the “pain as described by patient” value (Patient six [2]) was “markedly diminished”. For the same compound, the alcohol withdrawal phenomena (Patient six [2]) was “no withdrawal phenomena”.

With `CNCCC(Oc1ccc(C(F)(F)F)cc1)c1ccccc1` (stereo not shown) [Prozac, fluoxetine HCl] the body weight (Patient one) was 119 lb and the smoking status (Patient one) was “not smoking”.

In the case of `NC(=O)N1c2ccccc2C=Cc2ccccc21` [Tegretol], the “outcome of earlier trials” value (Patient six [2]) is reported as “no help”.

With `CN[C@H]1CC[C@@H](c2ccc(Cl)c(Cl)c2)c2ccccc21` [Zoloft, sertraline HCl] the body weight (Patient five) was 245 lb, the “cardiac output by echocardiography” value (Patient four; [4]) was “improved” and the body weight (Patient four; [5]) was 230 lb. For the same compound, the “weight lost on therapy to date” value (Patient six [1]) was “approximately 25 lb” and the overall condition (Patient six [1]) was “greatly improved”.

`CN(C)CCCC1(c2ccc(F)cc2)OCc2cc(C#N)ccc21` (stereo not shown) [Celexa, citalopram] gave a body weight reported by phone (Patient five) of ~240 lb, a body weight (Patient two) of 127 lb and a weight reduction (Patient two) of 12.5%.

With `CC(C)(N)Cc1ccccc1` [Adipex-P, phentermine] the “side effect noted by patient” value (Patient three) was “some difficulty sleeping”, the patient-reported status (Patient three) was “life had been transformed back towards its normal status” and the body weight (Patient five) was 245 lb. The body weight reported by phone (Patient five) was ~240 lb, the “improvement (weight, fatigue)” value (Patient four; Adipex-P 37.5 one-half + Celexa 10 mg twice weekly + Aricept one-quarter pill MWF, in the absence of fenfluramine) was “essentially no improvement” and the body weight (Patient four; [4]) was 217 lb. The “cardiac output by echocardiography” value (Patient four; [4]) was “improved”, the body weight (Patient four; [5]) was 230 lb and the cardiac index remeasured (Patient four) was “even more improved than previously”. The “body weight the next month” value (Patient four) was 218, the “weight lost on therapy to date” value (Patient six [1]) was “approximately 25 lb” and the body weight (Patient six [1]; [3]) was 161 lb. The “chronic fatigue remaining, of its original” value (Patient six [1]; [3]) was ~20%, the overall condition (Patient six [1]) was “greatly improved” and the body weight (Patient two) was 127 lb. For the same compound, the weight reduction (Patient two) was 12.5%, the leg aches (Patient two) was “resolution of their leg aches” and the body weight change (Patient six [2]) was “marked weight loss”. The energy level (Patient six [2]) was “marked improvement in energy level”, the “pain as described by patient” value (Patient six [2]) was “markedly diminished” and the alcohol withdrawal phenomena (Patient six [2]) was “no withdrawal phenomena”. The body weight (Patient one) was 119 lb and the smoking status (Patient one) was “not smoking”.

“hydrocodone/APAPE [hydrocodone/APAPE 7.5/500]” was tested, and the effect on pain (Patient six [2]; taken as needed at the time therapy started) was “not effective”.

`O=C1NC(=O)C(c2ccccc2)(c2ccccc2)N1` [Dilantin] was tested, and the “outcome of earlier trials” value (Patient six [2]) was “no help”.

`CN(C)CCC=C1c2ccccc2CCc2ccccc21` [Elavil] was tested, and the “outcome of earlier trials” value (Patient six [2]) was “no help”.
